Like-named read-outs stand apart in the source and are kept apart here.
What was measured:
Assay type in all cases: in vivo
[1] = system: housefly (Musca domestica); experiment: Housefly mortality test on treated filter paper; settings: 500 ppm solution 0.7 mL on filter paper, female adult, after 24 hours
Procedure: Each formulation containing the present Compounds […] prepared according to the above-mentioned Formulation examples was diluted with water so that the active ingredient concentration was set to 500 ppm and the testing drug solutions were prepared. […] Ten (10) individuals of female adult housefly (Musca domestica) was released into the polyethylene cup and the cup was covered with the lid. After 24 hours, the number of the dead insects was counted. The mortality of insects was calculated by the following equation. Mortality of insects(%)=(Number of dead insects/Number of tested insects)×100

[2] = system: cabbage moth (Plutella xylostella); experiment: Cabbage moth mortality test on sprayed cabbage; settings: 500 ppm, 20 mL/cup sprayed on cabbage, three instar larval stages, after 5 days
Procedure: The testing drug solutions to be used in this Test example were prepared by diluting the formulations prepared according to the above-mentioned Formulation examples with an ion-exchange water so that the active ingredient concentration was set to 500 ppm. Cabbage (green ball) was planted in a polyethylene cup and was grown until the third true leaf or the fourth true leaf was developed. To the cabbage (Brassicae oleracea) was sprayed the above-mentioned testing solutions in a ratio of 20 mL/cup. After the drug solutions were dried, to a polyethylene cup (diameter 5.5 cm) covered with a filter paper on the bottom, the cabbage cut out from the root was installed and five heads of cabbage moth (Plutella xylostella) at the three instar larval stages were released into the cup and the cup was covered with the lid. The cup was held at 25° C. and after 5 days, the number of the surviving insects was counted and the mortality of insects was calculated by the following equation. Mortality of insects(%)=(Number of dead insects/Number of tested insects)×100

[3] = system: common house mosquito (Culex pipiens pallens); experiment: Common house mosquito larva mortality test in treated water; settings: active ingredient concentration 3.5 ppm in water, last instar larva, read-out: mortality of insects
Procedure: Each formulation containing the present Compounds […] prepared according to the above-mentioned Formulation examples was diluted with water so that the active ingredient concentration was set to 500 ppm and the testing drug solutions were prepared. The above-mentioned drug solutions 0.7 mL were added to an ion-exchange water 100 mL (an active ingredient concentration: 3.5 ppm). Twenty (20) last instar larva of common house mosquito (Culex pipiens pallens) were released into the solutions and after 1 day, the number of the dead insects was counted. The mortality of insects was calculated by the following equation. Mortality of insects(%)=(Number of dead insects/Number of tested insects)×100 The testing drug solutions to be used in this Test example were prepared by diluting the formulations prepared according to the above-mentioned Formulation examples with an ion-exchange water so that the active ingredient concentration was set to 500 ppm. The above-mentioned drug solutions 0.7 mL were added to an ion-exchange water 100 mL so that the active ingredient concentration was set to 3.5 ppm. Twenty (20) last instar larva of common house mosquito (Culex pipiens pallens) were released into the solutions and after […], the number of the dead insects was counted. The mortality of insects was calculated by the following equation. Mortality of insects(%)=(Number of dead insects/Number of tested insects)×100

| Compound | mortality of insects [2] [%] | pest or weed control at 3.5 ppm ([3]; 192 h, after 8 day) [%] | further results |
| --- | --- | --- | --- |
| Cc1cccc(-n2nnn(C)c2=O)c1COc1nc(-c2ccc(I)cc2)cs1 [Compound T033, 2-{[1-(4,5-dihydro-4-methyl-5-oxo-1H-tetrazole-1-yl)-3-methylphenyl-2-yl]methyloxy}-4-(4-iodophenyl)thiazole] |  |  | mortality of insects [1]: 100% |
| Cc1cccc(-n2nnn(C)c2=O)c1COc1nc(-c2ccc(Br)cc2F)cs1 [Compound T034, 2-{[1-(4,5-dihydro-4-methyl-5-oxo-1H-tetrazole-1-yl)-3-methylphenyl-2-yl]methyloxy}-4-(4-bromo-2-fluorophenyl)thiazole] | 80 |  |  |
| Cc1cccc(-n2nnn(C)c2=O)c1COc1nc(-c2c(F)c(F)c(F)c(F)c2F)cs1 [Compound T036, 2-{[1-(4,5-dihydro-4-methyl-5-oxo-1H-tetrazole-1-yl)-3-methylphenyl-2-yl]methyloxy}-4-(2,3,4,5,6-pentafluorophenyl)thiazole] | 80 |  |  |
| Cc1ccc(-c2csc(OCc3c(C)cccc3-n3nnn(C)c3=O)n2)cc1 [Compound T039, 2-{[1-(4,5-dihydro-4-methyl-5-oxo-1H-tetrazole-1-yl)-3-methylphenyl-2-yl]methyloxy}-4-(4-methylphenyl)thiazole] |  |  | mortality of insects [1]: 100% |
| CCCCc1ccc(-c2csc(OCc3c(C)cccc3-n3nnn(C)c3=O)n2)cc1 [Compound T041, 2-{[1-(4,5-dihydro-4-methyl-5-oxo-1H-tetrazole-1-yl)-3-methylphenyl-2-yl]methyloxy}-4-(4-butylphenyl)thiazole] | 80 |  |  |
| Cc1cccc(-n2nnn(C)c2=O)c1COc1nc(-c2ccc(C(C)(C)C)cc2)cs1 [Compound T042, 2-{[1-(4,5-dihydro-4-methyl-5-oxo-1H-tetrazole-1-yl)-3-methylphenyl-2-yl]methyloxy}-4-[4-(1,1-dimethylethyl)phenyl]thiazole] | 80 | 100 |  |
| Cc1ccccc1-c1csc(OCc2c(Br)cccc2-n2nnn(C)c2=O)n1 [Compound T091, 2-{[1-(4,5-dihydro-4-methyl-5-oxo-1H-tetrazole-1-yl)-3-bromophenyl-2-yl]methyloxy}-4-(2-methylphenyl)thiazole] | 80 | 100 |  |
| CCc1cccc(-n2nnn(C)c2=O)c1COc1nc(-c2ccccc2C)cs1 [Compound T097, 2-{[1-(4,5-dihydro-4-methyl-5-oxo-1H-tetrazole-1-yl)-3-ethylphenyl-2-yl]methyloxy}-4-(2-methylphenyl)thiazole] |  | 100 |  |
| CCc1ccccc1-c1csc(OCc2c(C)cccc2-n2nnn(C)c2=O)n1 [Compound T125, 2-{[1-(4,5-dihydro-4-methyl-5-oxo-1H-tetrazole-1-yl)-3-methylphenyl-2-yl]methyloxy}-4-(2-ethylphenyl)thiazole] | 80 |  | pest or weed control at 3.5 ppm ([3]; 24 h, after 1 day): 100% |
| COc1cc(Cl)ccc1-c1csc(OCc2c(C)cccc2-n2nnn(C)c2=O)n1 [Compound T143, 2-{[1-(4,5-dihydro-4-methyl-5-oxo-1H-tetrazole-1-yl)-3-methylphenyl-2-yl]methyloxy}-4-(4-chloro-2-methoxyphenyl)thiazole] |  |  | pest or weed control at 3.5 ppm ([3]; 24 h, after 1 day): 100% |
| CCCCCCCc1ccccc1-c1csc(OCc2c(C)cccc2-n2nnn(C)c2=O)n1 [Compound T144, 2-{[1-(4,5-dihydro-4-methyl-5-oxo-1H-tetrazole-1-yl)-3-methylphenyl-2-yl]methyloxy}-4-(2-heptylphenyl)thiazole] |  | 100 |  |
| Cc1cccc(-n2nnn(C)c2=O)c1COc1nc(-c2cccc(Br)c2)cs1 [Compound T145, 2-{[1-(4,5-dihydro-4-methyl-5-oxo-1H-tetrazole-1-yl)-3-methylphenyl-2-yl]methyloxy}-4-(3-bromophenyl)thiazole] | 80 |  |  |
| CCCCCCCc1cccc(-c2csc(OCc3c(C)cccc3-n3nnn(C)c3=O)n2)c1 [Compound T146, 2-{[1-(4,5-dihydro-4-methyl-5-oxo-1H-tetrazole-1-yl)-3-methylphenyl-2-yl]methyloxy}-4-(3-heptylphenyl)thiazole] |  | 100 |  |
| Cn1nnn(-c2ccc(F)cc2COc2nc(-c3ccc(Br)cc3)cs2)c1=O [Compound T147, 2-{[1-(4,5-dihydro-4-methyl-5-oxo-1H-tetrazole-1-yl)-4-fluorophenyl-2-yl]methyloxy}-4-(4-bromophenyl)thiazole] |  | 100 |  |
| COc1ccc(C)cc1-c1csc(OCc2c(C)cccc2-n2nnn(C)c2=O)n1 [Compound T148, 2-{[1-(4,5-dihydro-4-methyl-5-oxo-1H-tetrazole-1-yl)-3-methylphenyl-2-yl]methyloxy}-4-(5-methyl-2-methoxyphenyl)thiazole] |  | 100 |  |
